The source of these data is US10526327B2, “Histone demethylase inhibitors” (CELGENE QUANTICEL RESEARCH, INC., priority 2013, dated 2020).

Molecules are shown by their SMILES.

For the assay, the target named is T1, Jarid1A (Homo sapiens, UniProt P29375).
T1 construct: purchased BPS Bioscience 50110
T1 sequence (P29375 1-1090): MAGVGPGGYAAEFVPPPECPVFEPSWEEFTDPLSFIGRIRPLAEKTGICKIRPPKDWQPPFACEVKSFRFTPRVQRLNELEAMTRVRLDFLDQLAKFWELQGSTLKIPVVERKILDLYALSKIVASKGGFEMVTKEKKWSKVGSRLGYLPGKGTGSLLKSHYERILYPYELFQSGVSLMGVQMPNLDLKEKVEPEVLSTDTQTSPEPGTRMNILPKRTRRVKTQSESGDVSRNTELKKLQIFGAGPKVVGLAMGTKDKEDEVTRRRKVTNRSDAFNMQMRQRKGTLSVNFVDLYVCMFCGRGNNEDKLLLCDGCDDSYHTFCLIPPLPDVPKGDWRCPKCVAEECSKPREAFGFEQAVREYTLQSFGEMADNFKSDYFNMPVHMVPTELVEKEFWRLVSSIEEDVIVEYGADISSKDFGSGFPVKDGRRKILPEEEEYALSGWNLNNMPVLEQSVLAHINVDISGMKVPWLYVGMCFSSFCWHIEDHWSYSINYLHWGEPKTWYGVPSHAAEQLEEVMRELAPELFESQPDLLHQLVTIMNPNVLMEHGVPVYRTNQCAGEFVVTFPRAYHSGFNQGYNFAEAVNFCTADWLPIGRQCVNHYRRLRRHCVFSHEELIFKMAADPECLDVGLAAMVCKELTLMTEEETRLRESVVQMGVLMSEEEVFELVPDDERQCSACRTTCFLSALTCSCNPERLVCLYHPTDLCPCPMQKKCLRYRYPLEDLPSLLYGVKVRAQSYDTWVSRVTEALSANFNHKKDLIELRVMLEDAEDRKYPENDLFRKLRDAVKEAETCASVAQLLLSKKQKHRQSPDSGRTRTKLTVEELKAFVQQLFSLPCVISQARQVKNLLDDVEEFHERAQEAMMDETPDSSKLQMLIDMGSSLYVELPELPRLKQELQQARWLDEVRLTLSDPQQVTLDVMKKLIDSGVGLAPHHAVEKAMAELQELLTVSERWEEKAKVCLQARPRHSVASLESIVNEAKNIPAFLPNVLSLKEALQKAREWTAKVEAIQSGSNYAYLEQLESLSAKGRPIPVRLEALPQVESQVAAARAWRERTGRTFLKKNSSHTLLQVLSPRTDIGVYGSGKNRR
Kind of assay: Jarid1A in vitro enzyme inhibition assay (TR-FRET). It is filed as biochemical. The source says:
This assay determines the ability of a test compound to inhibit Jarid1A, Jarid1B, and JMJD2C demethylase activity. Baculovirus expressed Jarid1A (GenBank Accession #NM_001042603, AA1-1090) was purchased from BPS Bioscience (Cat#50110). Baculovirus expressed Jarid1B (GenBank Accession #NM_006618, AA 2-751) was purchased from BPS Bioscience (Cat #50121) or custom made by MolecularThroughput. Baculovirus expressed JMJD2C (GenBank Accession #BC143571, AA 2-372) was purchased from BPS Bioscience (Cat#50105).
The enzymatic assay of Jarid1A activity is based upon Time Resolved-Fluorescence Resonance Energy Transfer (TR-FRET) detection. The ability of test compounds to inhibit the activity of Jarid1A was determined in 384-well plate format under the following reaction conditions: 1 nM Jarid1A, 300 nM H3K4me3-biotin labeled peptide (Anaspec cat #64357), 2 μM alpha-ketoglutaric acid in assay buffer of 50 mM HEPES, pH7.3, 0.005% Brij35, 0.5 mM TCEP, 0.2 mg/ml BSA, 50 μM sodium L-ascorbate, and 2 μM ammonium iron(II) sulfate. Reaction product was determined quantitatively by TR-FRET after the addition of detection reagent Phycolink Streptavidin-allophycocyanin (Prozyme) and Europium-anti-mono-or di-methylated histone H3 lysine 4 (H3K4me1-2) antibody (PerkinElmer) in the presence of 5 mM EDTA in LANCE detection buffer (PerkinElmer) at a final concentration of 25 nM and 1 nM, respectively.
The assay reaction was initiated by the following: 2 μl of the mixture of 900 nM H3K4me3-biotin labeled peptide and 6 μM alpha-ketoglutaric acid with 2 μl of 11-point serial diluted inhibitor in 3% DMSO was added to each well of plate, followed by the addition of 2 μl of 3 nM Jarid1A to initiate the reaction. The reaction mixture was incubated at room temperature for 30 minutes, and terminated by the addition of 6 μl of 5 mM EDTA in LANCE detection buffer containing 50 nM Phycolink Streptavidin-allophycocyanin and 2 nM Europium-anti-H3K4me1-2 antibody. Plates were read by EnVisionMultilabel Reader in TR-FRET mode (excitation at 320 nm, emission at 615 nm and 665 nm) after 1 hour incubation at room temperature. A ratio was calculated (665/615) for each well and fitted to determine inhibition constant (IC50).

The compound `OCCOc1nc(O)c2ccncc2n1` [Example 3, 2-(2-hydroxyethoxy)pyrido[3,4-d]pyrimidin-4-ol] came in with an IC50 of at most 100 nM.

`Oc1nc(OC2CCCC2)nc2cnccc12` [Example 6, 2-cyclopentyloxy-3H-pyrido[3,4-d]pyrimidin-4-one]: the IC50 lay in the range of 100 to 1000 nM.

Consider `COc1nc(O)c2ccncc2n1` [Example 8, 2-methoxypyrido[3,4-d]pyrimidin-4-ol], for which the IC50 was at most 100 nM.

Take `CCC(C)Oc1nc(O)c2ccncc2n1` (centres unmarked) [Example 9, 2-butan-2-yloxy-3H-pyrido[3,4-d]pyrimidin-4-one]: the IC50 was in the range of 1000 to 10000 nM.

In the case of `CC(C)(C)OC(=O)Nc1cccc(Oc2nc(O)c3ccncc3n2)c1` [Example 36, tert-butyl N-[3-(4-hydroxypyrido[3,4-d]pyrimidin-2-yl)oxyphenyl]carbamate], the IC50 is at most 100 nM.

Turning to `COc1ccc(Oc2nc(O)c3ccncc3n2)cc1OC` [Example 38, 2-(3,4-dimethoxyphenoxy)pyrido[3,4-d]pyrimidin-4-ol], the IC50 was at most 100 nM.

Take `CC(C)c1cccc(Oc2nc(O)c3ccncc3n2)c1` [Example 39, 2-(3-propan-2-ylphenoxy)pyrido[3,4-d]pyrimidin-4-ol]: the IC50 is at most 100 nM.

`Oc1nc(Oc2cccc(F)c2F)nc2cnccc12` [Example 42, 2-(2,3-difluorophenoxy)pyrido[3,4-d]pyrimidin-4-ol] came in with an IC50 of at most 100 nM.

`COc1c(F)cc(Oc2nc(O)c3ccncc3n2)cc1F` [Example 43, 2-(3,5-difluoro-4-methoxyphenoxy)pyrido[3,4-d]pyrimidin-4-ol]: the IC50 is at most 100 nM.

In turn, `Oc1nc(Oc2ccccc2F)nc2cnccc12` [Example 46, 2-(2-fluorophenoxy)pyrido[3,4-d]pyrimidin-4-ol] registered an IC50 of at most 100 nM.

`CCCc1cccc(Oc2nc(O)c3ccncc3n2)c1` [Example 58, 2-(3-propylphenoxy)pyrido[3,4-d]pyrimidin-4-ol] yielded an IC50 of at most 100 nM.

The compound `CN(C)c1ccc(Oc2nc(O)c3ccncc3n2)cc1` [Example 59, 2-[4-(dimethylamino)phenoxy]pyrido[3,4-d]pyrimidin-4-ol] displayed an IC50 of at most 100 nM.

`O=C(c1cc(F)cc(Oc2nc(O)c3ccncc3n2)c1)N1CCOCC1` [Example 60] yielded an IC50 of at most 100 nM.

With `COCCn1ncc2ccc(Oc3nc(O)c4ccncc4n3)cc21` [Example 61, 2-{[1-(2-methoxyethyl)-1H-indazol-6-yl]oxy}pyrido[3,4-d]pyrimidin-4-ol], the IC50 was at most 100 nM.

Compound `CCn1cc(Oc2nc(O)c3ccncc3n2)cn1` [Example 62, 2-[(1-ethyl-1H-pyrazol-4-yl)oxy]pyrido[3,4-d]pyrimidin-4-ol] had an IC50 of at most 100 nM.

Take `CC(C)n1cc(Oc2nc3cnccc3c(=O)[nH]2)cn1` [Example 63, 2-{[1-(propan-2-yl)-1H-pyrazol-4-yl]oxy}pyrido[3,4-d]pyrimidin-4-ol]: the IC50 was at most 100 nM.

`COCCn1cc(Oc2nc(O)c3ccncc3n2)cn1` [Example 64, 2-{[1-(2-methoxyethyl)-1H-pyrazol-4-yl]oxy}pyrido[3,4-d]pyrimidin-4-ol] had an IC50 of at most 100 nM.

For `COCCCn1cc(Oc2nc(O)c3ccncc3n2)cn1` [Example 65, 2-{[1-(3-methoxypropyl)-1H-pyrazol-4-yl]oxy}pyrido[3,4-d]pyrimidin-4-ol], the IC50 was at most 100 nM.

For `Oc1nc(Oc2cnn(C3CCOCC3)c2)nc2cnccc12` [Example 67, 2-{[1-(tetrahydro-2H-pyran-4-yl)-1H-pyrazol-4-yl]oxy}pyrido[3,4-d]pyrimidin-4-ol], the IC50 was at most 100 nM.

`COc1nc(O)c2ccnc(-c3cn(C)cn3)c2n1` [Example 68, 2-methoxy-8-(1-methyl-1H-imidazol-4-yl)pyrido[3,4-d]pyrimidin-4-ol] yielded an IC50 of at most 100 nM.

The compound `CN(C)CCOc1nc(O)c2ccnc(-c3cn(C)cn3)c2n1` [Example 76, 2-[2-(dimethylamino)ethoxy]-8-(1-methylimidazol-4-yl)pyrido[3,4-d]pyrimidin-4-ol] showed an IC50 of 100 to 1000 nM.

As for `Cn1cnc(-c2nccc3c(O)nc(OCC(F)F)nc23)c1` [Example 77, 2-(2,2-difluoroethoxy)-8-(1-methylimidazol-4-yl)pyrido[3,4-d]pyrimidin-4-ol], the IC50 is at most 100 nM.

`Cn1cnc(-c2nccc3c(O)nc(OCCC4CC4)nc23)c1` [Example 78, 2-(2-cyclopropylethoxy)-8-(1-methylimidazol-4-yl)pyrido[3,4-d]pyrimidin-4-ol] gave an IC50 of at most 100 nM.

For the compound `Cn1cnc(-c2nccc3c(O)nc(Oc4cnn(Cc5ccccc5)c4)nc23)c1` [Example 79, 2-(1-benzylpyrazol-4-yl)oxy-8-(1-methylimidazol-4-yl)pyrido[3,4-d]pyrimidin-4-ol], the IC50 is at most 100 nM.

Compound `CC(C)CCn1cc(Oc2nc(O)c3ccnc(-c4cn(C)cn4)c3n2)cn1` [Example 80, 2-[1-(3-methylbutyl)pyrazol-4-yl]oxy-8-(1-methylimidazol-4-yl)pyrido[3,4-d]pyrimidin-4-ol] came in with an IC50 of at most 100 nM.

With `Cn1cnc(-c2nccc3c(O)nc(Oc4ccc(F)c(F)c4)nc23)c1` [Example 81, 2-(3,4-difluorophenoxy)-8-(1-methylimidazol-4-yl)pyrido[3,4-d]pyrimidin-4-ol], the IC50 was at most 100 nM.

On to `COCCOc1ccc(Oc2nc(O)c3ccnc(-c4cn(C)cn4)c3n2)cc1` [Example 82, 2-[4-(2-methoxyethoxy)phenoxy]-8-(1-methylimidazol-4-yl)pyrido[3,4-d]pyrimidin-4-ol], for which the IC50 is at most 100 nM.

`Cn1cnc(-c2nccc3c(O)nc(Oc4ccc5cnn(C)c5c4)nc23)c1` [Example 83, 8-(1-methylimidazol-4-yl)-2-(1-methylindazol-6-yl)oxypyrido[3,4-d]pyrimidin-4-ol] had an IC50 of at most 100 nM.

The compound `CCn1ncc2ccc(Oc3nc(O)c4ccnc(-c5cn(C)cn5)c4n3)cc21` [Example 84, 2-(1-ethylindazol-6-yl)oxy-8-(1-methylimidazol-4-yl)pyrido[3,4-d]pyrimidin-4-ol] displayed an IC50 of at most 100 nM.

`Cc1nn(C)c2cc(Oc3nc(O)c4ccnc(-c5cn(C)cn5)c4n3)ccc12` [Example 85, 2-(1,3-dimethylindazol-6-yl)oxy-8-(1-methylimidazol-4-yl)pyrido[3,4-d]pyrimidin-4-ol]: the IC50 was at most 100 nM.

Regarding `CC(=O)N1CCC(n2cc(Oc3nc(O)c4ccncc4n3)cn2)CC1` [Example 90, 1-[4-[4-(4-hydroxypyrido[3,4-d]pyrimidin-2-yl)oxypyrazol-1-yl]piperidin-1-yl]ethanone], the IC50 was at most 100 nM.

`C=CC(=O)N1CCC(n2cc(Oc3nc(O)c4ccncc4n3)cn2)CC1` [Example 91, 1-[4-[4-(4-hydroxypyrido[3,4-d]pyrimidin-2-yl)oxypyrazol-1-yl]piperidin-1-yl]prop-2-en-1-one]: the IC50 was at most 100 nM.
